The target in one data set is CB2 (Homo sapiens, UniProt P34972). Description: cell-based. Particulars: read-out: IC50.
A further data set has as its target H2 (Homo sapiens, UniProt P25021). Description: cell-based. The settings on record: read-out: EC50.
The subject of another data set is HCV replicon 1b. Description: microbe, parasite or virus in culture. It counts as cell-based. The settings on record: Hepatitis C virus, read-out: EC50 for Virus.
Data set [1] can be described thus: in vitro.
The next data set has as its target T1, CCKa (Homo sapiens, UniProt P32238).
T1 sequence (P32238 1-428): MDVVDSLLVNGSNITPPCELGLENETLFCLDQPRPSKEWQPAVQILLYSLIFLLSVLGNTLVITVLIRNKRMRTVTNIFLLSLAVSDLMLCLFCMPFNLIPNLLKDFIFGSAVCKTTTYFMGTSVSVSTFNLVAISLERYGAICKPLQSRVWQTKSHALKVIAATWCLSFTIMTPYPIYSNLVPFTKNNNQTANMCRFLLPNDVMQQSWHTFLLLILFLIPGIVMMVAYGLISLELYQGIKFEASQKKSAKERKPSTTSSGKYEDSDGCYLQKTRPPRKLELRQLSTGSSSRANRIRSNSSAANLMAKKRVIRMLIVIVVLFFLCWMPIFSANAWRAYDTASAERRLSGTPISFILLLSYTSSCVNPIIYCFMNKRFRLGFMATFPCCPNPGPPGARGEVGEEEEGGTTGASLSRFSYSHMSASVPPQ
Description: cell-based. Particulars: read-out: IC50.

For a further data set, the system named is RSV long. Description: microbe, parasite or virus in culture. It counts as cell-based, respiratory syncytial virus. Particulars: read-out: EC50 for Virus.
Another data set concerns the target 5HT2A (Homo sapiens, UniProt P28223). Description: cell-based. Particulars: agonist mode; read-out: EC50.
The subject of data set [2] is influenza A virus WSN/33 (H1N1). Also on record: species or system BALB/c mice. Particulars: mouse, in vivo.
Another data set concerns the target M1 (Homo sapiens, UniProt P11229). Description: cell-based.
The next data set has as its target M2 (Homo sapiens, UniProt P08172). Description: cell-based.
Another data set deals with M3 (Homo sapiens, UniProt P20309). Description: cell-based.
M3, sequence (P20309 whole entry): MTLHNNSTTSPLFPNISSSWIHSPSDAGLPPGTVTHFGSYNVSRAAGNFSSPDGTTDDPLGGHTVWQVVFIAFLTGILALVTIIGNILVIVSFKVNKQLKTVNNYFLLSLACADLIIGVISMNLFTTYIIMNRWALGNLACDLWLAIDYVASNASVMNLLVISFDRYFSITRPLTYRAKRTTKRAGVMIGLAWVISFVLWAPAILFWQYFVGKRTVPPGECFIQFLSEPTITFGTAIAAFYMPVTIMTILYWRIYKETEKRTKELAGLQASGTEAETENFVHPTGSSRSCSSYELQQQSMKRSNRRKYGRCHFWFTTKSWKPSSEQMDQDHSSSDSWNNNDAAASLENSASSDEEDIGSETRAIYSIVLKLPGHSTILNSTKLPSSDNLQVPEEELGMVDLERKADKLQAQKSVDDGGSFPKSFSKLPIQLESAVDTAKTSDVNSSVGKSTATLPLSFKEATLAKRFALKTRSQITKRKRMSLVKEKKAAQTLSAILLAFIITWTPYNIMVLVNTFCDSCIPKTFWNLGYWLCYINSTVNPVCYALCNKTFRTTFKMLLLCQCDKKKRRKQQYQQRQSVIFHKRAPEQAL
The test system of data set [3] is Influenza virus A/California/07/2009 (H1N1)pdm09. Description: microbe, parasite or virus in culture. Format: cell-based. The settings on record: H1N1, MDCK, read-out: EC50 (mean ± SD).
The subject of data set [4] is Influenza virus A/California/2/2014 (H3N2). Description: microbe, parasite or virus in culture. Format: cell-based. The settings on record: H3N2, MDCK, read-out: EC50 (mean ± SD).
The next data set relates to A/PR/8/34 (H1N1). Also on record: species or system BALB/c mice. Particulars: mouse, in vivo.
Data set [5] is described as follows: Cytotoxicity in MDCK cells without viral infection. The settings on record: dog.
For another data set, the system named is HPIV-3 C243. Description: microbe, parasite or virus in culture. Format: cell-based, human parainfluenza virus type 3. The settings on record: Human respirovirus 3, LLC-MK2, read-out: EC50 for Virus.
Data set [6] can be described thus: in vitro. The settings on record: rhesus monkey.
The target of a further data set is Alpha1a (Homo sapiens, UniProt P35348). Description: cell-based. Particulars: read-out: IC50.
Alpha1a, sequence (P35348 whole entry): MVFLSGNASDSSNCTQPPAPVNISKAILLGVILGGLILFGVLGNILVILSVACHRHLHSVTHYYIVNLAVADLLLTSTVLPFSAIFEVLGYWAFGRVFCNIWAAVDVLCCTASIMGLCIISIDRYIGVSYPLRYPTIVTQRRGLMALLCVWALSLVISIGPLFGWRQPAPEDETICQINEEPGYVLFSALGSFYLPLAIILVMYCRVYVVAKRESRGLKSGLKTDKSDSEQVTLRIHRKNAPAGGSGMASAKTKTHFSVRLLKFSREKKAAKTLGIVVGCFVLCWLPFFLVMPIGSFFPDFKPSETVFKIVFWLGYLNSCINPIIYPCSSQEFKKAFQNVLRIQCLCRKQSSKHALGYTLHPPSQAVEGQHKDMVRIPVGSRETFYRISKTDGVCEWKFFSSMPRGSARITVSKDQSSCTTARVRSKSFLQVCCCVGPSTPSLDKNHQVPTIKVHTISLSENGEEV
For data set [7], the system named is AD2. It counts as cell-based, human. The settings on record: read-out: EC50.
For data set [8], the system named is AD2. Format: cell-based, human.

Counter-ions that a name gives are not always drawn.

H2, sequence (P25021 whole entry): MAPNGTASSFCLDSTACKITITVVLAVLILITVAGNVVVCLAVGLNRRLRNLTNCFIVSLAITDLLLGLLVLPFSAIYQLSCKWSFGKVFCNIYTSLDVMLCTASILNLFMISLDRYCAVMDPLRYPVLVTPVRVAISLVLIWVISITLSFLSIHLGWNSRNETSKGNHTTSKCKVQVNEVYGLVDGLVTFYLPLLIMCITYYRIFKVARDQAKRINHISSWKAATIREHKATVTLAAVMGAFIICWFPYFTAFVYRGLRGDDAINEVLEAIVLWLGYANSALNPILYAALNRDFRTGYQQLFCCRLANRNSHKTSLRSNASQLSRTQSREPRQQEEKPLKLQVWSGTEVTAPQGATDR
M1, sequence (P11229 whole entry): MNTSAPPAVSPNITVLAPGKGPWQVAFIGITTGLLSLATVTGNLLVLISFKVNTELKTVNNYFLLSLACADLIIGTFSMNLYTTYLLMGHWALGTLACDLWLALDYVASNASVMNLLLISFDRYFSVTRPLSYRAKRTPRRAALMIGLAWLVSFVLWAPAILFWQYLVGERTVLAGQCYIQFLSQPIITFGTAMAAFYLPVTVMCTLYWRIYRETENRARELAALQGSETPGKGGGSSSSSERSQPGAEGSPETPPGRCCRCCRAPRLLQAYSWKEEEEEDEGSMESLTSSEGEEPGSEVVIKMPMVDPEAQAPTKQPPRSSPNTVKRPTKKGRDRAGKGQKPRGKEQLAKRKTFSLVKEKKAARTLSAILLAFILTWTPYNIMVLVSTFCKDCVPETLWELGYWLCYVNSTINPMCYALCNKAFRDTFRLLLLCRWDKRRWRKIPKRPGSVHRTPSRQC
5HT2A, sequence (P28223 whole entry): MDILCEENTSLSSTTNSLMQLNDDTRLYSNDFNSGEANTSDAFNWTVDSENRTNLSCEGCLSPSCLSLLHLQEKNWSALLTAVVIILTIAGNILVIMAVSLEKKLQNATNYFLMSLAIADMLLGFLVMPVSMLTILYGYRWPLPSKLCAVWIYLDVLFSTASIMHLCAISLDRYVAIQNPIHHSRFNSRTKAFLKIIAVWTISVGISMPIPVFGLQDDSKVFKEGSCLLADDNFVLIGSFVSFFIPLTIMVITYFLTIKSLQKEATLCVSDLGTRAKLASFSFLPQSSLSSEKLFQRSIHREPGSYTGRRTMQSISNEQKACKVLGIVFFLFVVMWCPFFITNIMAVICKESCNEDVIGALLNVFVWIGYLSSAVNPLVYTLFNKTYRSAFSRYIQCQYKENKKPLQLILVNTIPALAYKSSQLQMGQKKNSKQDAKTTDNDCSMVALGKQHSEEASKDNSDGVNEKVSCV
CB2, sequence (P34972 whole entry): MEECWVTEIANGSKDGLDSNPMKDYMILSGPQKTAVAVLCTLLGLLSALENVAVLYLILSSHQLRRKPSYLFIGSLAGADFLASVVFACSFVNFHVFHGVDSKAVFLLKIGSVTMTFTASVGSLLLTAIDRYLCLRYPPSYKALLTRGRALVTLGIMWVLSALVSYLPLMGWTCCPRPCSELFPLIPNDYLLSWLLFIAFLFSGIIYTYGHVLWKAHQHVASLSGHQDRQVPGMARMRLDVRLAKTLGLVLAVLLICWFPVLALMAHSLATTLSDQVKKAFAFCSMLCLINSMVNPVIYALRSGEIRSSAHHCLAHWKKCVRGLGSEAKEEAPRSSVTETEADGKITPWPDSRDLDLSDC
M2, sequence (P08172 whole entry): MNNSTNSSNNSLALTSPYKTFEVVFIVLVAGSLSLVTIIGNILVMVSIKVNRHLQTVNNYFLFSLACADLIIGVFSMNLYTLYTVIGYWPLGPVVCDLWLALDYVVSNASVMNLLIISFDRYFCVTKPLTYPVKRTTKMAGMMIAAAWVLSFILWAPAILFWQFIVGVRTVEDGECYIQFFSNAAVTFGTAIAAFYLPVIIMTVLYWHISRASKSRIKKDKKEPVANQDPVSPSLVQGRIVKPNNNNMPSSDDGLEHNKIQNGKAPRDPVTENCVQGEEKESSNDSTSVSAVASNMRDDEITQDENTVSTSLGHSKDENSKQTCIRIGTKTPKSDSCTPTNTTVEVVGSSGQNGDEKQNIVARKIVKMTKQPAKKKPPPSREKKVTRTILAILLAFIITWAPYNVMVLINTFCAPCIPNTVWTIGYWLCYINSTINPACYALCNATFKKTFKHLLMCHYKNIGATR

For the compound `COc1ccc(C(=O)c2c(C)n(CCN3CCOCC3)c3cc(I)ccc23)cc1` [AM630, reference compound], the IC50 (usually the concentration needed to halve the response being measured) on CB2 was 234 nM.
As to `Cc1nc(N)sc1CCN` [Amthamine dihydrobromide, reference compound], the EC50 (in general, the concentration giving half of the maximal effect) on H2 came to 1340 nM.
As for `COC(=O)N[C@H](C(=O)N1CCC[C@H]1c1nc(-c2ccc(-c3ccc(-c4c[nH]c([C@@H]5CCCN5C(=O)[C@@H](NC(=O)OC)C(C)C)n4)cc3)cc2)c[nH]1)C(C)C` [BMS-790052, reference compound], in the data set on HCV replicon 1b, the EC50 worked out at 0.021 nM. The CC50 in the data set “in vitro [1]” was greater than 3 nM.
`CCCCCN(CCCCC)C(=O)C(CCC(=O)O)NC(=O)c1ccc(Cl)c(Cl)c1` (stereo not drawn) [Lorglumide, reference compound]: the IC50 at CCKa was determined as 256 nM.
For the compound `O=c1n(Cc2nc3ccccc3n2CCCCO)c2cnccc2n1C1CC1` [BMS-433771, reference compound], the EC50 with RSV long was 14 nM.
Consider `NCCc1c[nH]c2ccc(C(N)=O)cc12` [5-CT, reference compound], for which the EC50 at 5HT2A is 9.35 nM.
`NC(=O)c1nc(F)c[nH]c1=O` [Favipiravir]: in [2], the “animals died (of n = 8)” value was “six” and the “day on which body weight of surviving mice began to recover” value was found to be 9 days.
On to `C#CCOC(=O)C1=CCCN(C)C1` [Arecaidine propargyl ester, reference compound], for which the figures for the EC50 at M1, on M2 and on M3 were 0.78 nM, 76.2 nM and 0.31 nM, respectively.
As for `O=C1c2c(O)c(=O)ccn2N([C@@H]2c3ccccc3SCc3c2ccc(F)c3F)[C@@H]2COCCN12` [Baloxavir], the EC50 in [3] turned out to be 1.06 ± 0.22 nM; in [4] it was 0.61 ± 0.02 nM. Also, the mortality rate in the data set with A/PR/8/34 (H1N1) is 40%. In data set [5], this compound returned a CC50 of 14400 ± 1520 nM.
As to `NC(=O)c1ncn([C@@H]2O[C@H](CO)[C@@H](O)[C@H]2O)n1` [Ribavirin, reference compound], the EC50 in the data set with HPIV-3 C243 amounted to 20300 nM. The same compound returned a CC50 in the data set “in vitro [6]” greater than 100000 nM.
For the compound `COc1ccccc1N1CCN(CCCNc2c(C)c(=O)n(C)c(=O)n2C)CC1` [5-Methylurapidil, reference compound], the IC50 at Alpha1a was found to be 3.65 nM.
On to `CCNC(=O)[C@H]1O[C@@H](n2cnc3c(N)ncnc32)[C@H](O)[C@@H]1O` [NECA, reference compound], for which the half-maximal effective concentration (EC50) in the data set with AD2 [7] was found to be 27.8 nM.
`Nc1nc2ccc(Cl)cc2c2nc(-c3ccco3)nn12` [CGS-15943, reference compound]: the IC50 with AD2 [8] is 0.11 nM.

The record behind these values is article PMC10056986 (Pharmaceuticals, 2023).
